{"source": "patent US10232035B2", "about": "“Conditionally replication deficient herpes virus and use thereof in vaccines” (THE REGENTS OF THE UNIVERSITY OF COLORADO, A BODY CORPORATE, priority 2012, dated 2019)", "tested_on": "SVV mutant 2", "details": "decreasing amounts of TMP, FIG. 6", "source_text": "Replication of mutant 2 was monitored by GFP expression (FIG. 5). […] GFP expression was monitored using an inverted microscope."}
{"compound": "COc1cc(Cc2cnc(N)nc2N)cc(OC)c1OC", "note": "[TMP, trimethoprim]", "values": [{"measurement": "lowest amount of TMP that can be used with SVV mutant 2", "result": 0.05, "unit": "µM"}]}
